Literature values as cited in paper PMC5600712 (ACS chemical biology, 2017).

Experiments:
[1] = test system: proteasome; details: α,β-epoxyketone proteasome inhibitor
[2] = test system: class I HDACs; details: class I compared with class II HDACs

Molecule	covalent adduct formation with proteasome [1]	selectivity of binding, class I versus class II HDACs [2]
CC(C)C[C@H](NC(=O)[C@H](CCc1ccccc1)NC(=O)CN1CCOCC1)C(=O)N[C@@H](Cc1ccccc1)C(=O)N[C@@H](CC(C)C)C(=O)[C@@]1(C)CO1 [carfilzomib]	forms a covalent adduct to block proteasome function	
HC toxin		tighter binding of these inhibitors to class I HDACs
